pEC50: −log10 of the molar value.
What was measured:
[1] = test system: vaccinia virus; format: cell-based; details: read-out: EC50 Vaccinia
[2] = test system: cowpox virus; format: cell-based; details: read-out: EC50 Cowpox
[3] = rat
[4] = cited from earlier work
[5] = test system: Caco-2 monolayers; assay: Transepithelial transport through Caco-2 monolayers; details: apical pH 6.0 MES to basolateral pH 7.4 HEPES, 21 days post-seeding
[6] = biological target: T1, human PEPT1 transporter (HeLa/hPEPT1 cells) (Homo sapiens, UniProt P46059); assay: Direct uptake in HeLa cells overexpressing hPEPT1; details: fold uptake over control cells not expressing PEPT1
T1 sequence (P46059 1-708): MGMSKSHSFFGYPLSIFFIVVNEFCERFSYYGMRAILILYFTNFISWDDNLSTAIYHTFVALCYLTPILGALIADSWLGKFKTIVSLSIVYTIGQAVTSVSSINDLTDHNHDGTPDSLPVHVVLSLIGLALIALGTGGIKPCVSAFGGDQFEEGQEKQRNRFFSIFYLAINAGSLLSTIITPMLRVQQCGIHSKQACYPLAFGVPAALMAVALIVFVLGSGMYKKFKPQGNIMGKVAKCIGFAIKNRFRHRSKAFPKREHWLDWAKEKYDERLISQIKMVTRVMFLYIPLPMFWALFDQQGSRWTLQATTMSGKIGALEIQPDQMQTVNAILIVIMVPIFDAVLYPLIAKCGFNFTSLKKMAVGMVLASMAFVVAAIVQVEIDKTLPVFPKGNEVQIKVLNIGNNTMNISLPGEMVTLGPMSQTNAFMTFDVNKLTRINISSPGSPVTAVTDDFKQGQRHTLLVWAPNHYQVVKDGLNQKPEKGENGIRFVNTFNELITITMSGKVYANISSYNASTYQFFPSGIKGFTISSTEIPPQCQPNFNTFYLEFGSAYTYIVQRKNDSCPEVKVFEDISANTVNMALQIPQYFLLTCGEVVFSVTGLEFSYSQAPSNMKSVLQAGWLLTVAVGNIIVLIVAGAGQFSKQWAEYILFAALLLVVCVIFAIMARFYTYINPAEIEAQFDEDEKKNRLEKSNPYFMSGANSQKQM

[7] = cited from earlier work; remark: listed apart in the source

Compound: 1-Beta-D-arabinofuranosyladenine [Vidarabine]
- pEC50 [1]: 5.21
- pEC50 [2]: 4.90
- T1/2 Plasma [3]: 25.8 min
- Solubility in water [4]: ~ 0.47 mg/ml
- Caco-2 permeability [5]: 0.083 cm/s × 10^6

Compound: CC(C)[C@@H](N)C(=O)OC[C@H]1O[C@@H](n2cnc3c(N)ncnc32)[C@@H](O)[C@@H]1O [Compound 7a]
- Caco-2 permeability [5]: 0.601 cm/s × 10^6

Compound: CC(C)[C@H](N)C(=O)OC[C@H]1O[C@@H](n2cnc3c(N)ncnc32)[C@@H](O)[C@@H]1O [Compound 7i]
- hPEPT1 control (uptake ratio HeLa/hPEPT1 over HeLa control) [6]: 20.7

Compound: CC[C@H](C)[C@H](N)C(=O)OC[C@H]1O[C@@H](n2cnc3c(N)ncnc32)[C@@H](O)[C@@H]1O [Compound 7k]
- hPEPT1 control (uptake ratio HeLa/hPEPT1 over HeLa control) [6]: 26.9
- Caco-2 permeability [5]: 1.026 cm/s × 10^6

Compound: Nc1ncnc2c1ncn2[C@@H]1O[C@H](COC(=O)[C@@H](N)Cc2ccccc2)[C@@H](O)[C@@H]1O [Compound 7l]
- Caco-2 permeability [5]: 0.668 cm/s × 10^6

Compound: CC(C)[C@H](N)C(=O)OCCOCn1cnc2c(=O)[nH]c(N)nc21 [Valacyclovir]
- hPEPT1 control (uptake ratio HeLa/hPEPT1 over HeLa control) [6]: 19.0

Compound: O=c1[nH]cnc2c1ncn2[C@@H]1O[C@H](CO)[C@@H](O)[C@@H]1O [ara-H, ara-hypoxanthine]
- Fold less potent than vidarabine (antiviral activity) [7]: at least 10 fold

Reference: paper PMC2642980 (Bioorganic & medicinal chemistry letters, 2008)
